Values quoted from earlier work, collected in patent US20260209864A1, “METHOD FOR DETERMINING AND IMPROVING THE POTENTIAL EFFICACY OF ANTICANCER TREATMENT” (ASSISTANCE PUBLIQUE - HOPITAUX DE PARIS, priority 2022, published 2026).

Legend:
[1] = system: hematological malignancies; conditions: early administration during allo-HSCT
[2] = after lung transplantation

SMILES: CC[C@H]1OC(=O)[C@H](C)[C@@H](O[C@H]2C[C@@](C)(OC)[C@@H](O)[C@H](C)O2)[C@H](C)[C@@H](O[C@@H]2O[C@H](C)C[C@H](N(C)C)[C@H]2O)[C@](C)(O)C[C@@H](C)CN(C)[C@H](C)[C@@H](O)[C@]1(C)O [azithromycin]
- risk of hematological malignancies relapses [1]: unexpectedly increased risk
- prevention of BOS [2]: prevents BOS
